Test results from patent publication US7893252B2, “Selectively depolymerized galactomannan polysaccharide” (priority 2003, dated 2011).
“Also recorded” adds a separate entry of the source.

How the values were obtained:
beagle dogs = assay: 28-day canine study (Example 9); assay type: in vivo; settings: galactomannan at 500 mg/m2, daily IV for four consecutive days
Protocol: In a 28-day canine study, single daily IV doses of saline, 6 mg/kg (120 mg/m2) 5-FU and ([…] (240 mg/m2) galactomannan or 4/2 mg/kg (80/40 mg/m2), 6/3.2 mg/kg (120/64 mg/m2) or 6/6 mg/kg (120/120 mg/m2) 5-FU/galactomannan were injected for four consecutive days to six groups of beagle dogs Mortality occurred in 13 of 48 dogs (five moribund sacrifices and eight found dead) between Study Days 2 and 5 (4/4 males on 5-FU; 3/4 males in the 4/2 mg/kg 5-FU/galactomannan group; 2/4 males and 1/4 females in the 6/3.2 and 6/6 mg/kg 5-FU/galactomannan groups, respectively).
Adverse effects in 5-FU groups included ataxia, prostration, vocalization, convulsions, tremors, hypersensitivity to touch, aggressive behavior (resulting in only three doses being given to the 6/3.2 5-FU/galactomanna group), emesis, salivation, soft stools and decreased red cell parameters and platelet counts. […] At the day 5 necropsy, treatment-related histological changes were largely limited to the 5-FU females. At day 29 necropsy, there were no remarkable changes in the survivors.

[1] = test system: Salmonella typhimurium strains TA97a, TA98, TA100, TA1535 and Escherichia coli strain WP2 uvrA (pKM101); assay: Ames bacterial reverse mutation assays; assay type: cell-based; settings: in the presence and absence of an exogenous metabolic activation system
Protocol: Mutagenicity studies were conducted and included two Ames bacterial reverse mutation assays in which the galactomannan of the invention was evaluated by itself in the first study and combined with 5-FU in the second study. The test articles in both studies were evaluated in bacterial assays using Salmonella typhimurium strains TA97a, TA98, TA100, TA1535 and Escherichia coli strain WP2 uvrA (pKM101), both in the presence and absence of an exogenous metabolic activation system.

rats = assay: Repeat dose I.V. rat study with GMP grade galactomannan (Example 8); assay type: in vivo
Protocol: Studies with repeat dose I.V. in rats with up to 52-day recovery period was performed using filtered GMP grade galactomannan material containing 48 or 96 mg/kg (288 or 576 mg/m2). Five animals of each sex were sacrificed at days 5, 28 and 56.
The galactomannan of the invention has minimal histological effects with only 1/30 rats injected with 48 mg/kg dose of the GMP galactomannan clinical solution having granulomatous inflammation. […] It was concluded that galactomannan clinical solutions, up to a dose of 15 mg/kg (555 mg/m2; 9 mg/mL), is safe for human use and poses no undue risk to health.

mice = assay: Acute toxicology, single IV dose in mice; assay type: in vivo; settings: single IV dose; galactomannan (336 mg/m2), 112 mg/kg (336 mg/m2); combination 417/222 mg/kg (1251/666 mg/m2); n=5/group
Protocol: Acute toxicology studies of the galactomannan of the present invention were performed in mice, rats and dogs and subchronic toxicology studies were performed in rats and dogs. The following is a summary of the findings of these studies: […]

[2] = test system: COLO 205 human colon tumor xenografts; assay: Efficacy and compatibility with leucovorin in COLO 205 human colon tumor xenografts, q4d×4 (Example 4)
Protocol: The principal differences with the study described in Example 3 were that (a) the galactomannan was from another source, of a different size (molecular weight) and with a different Man/Gal ratio, (b) there were four consecutive injections, not three, (c) there were four doses of the galactomannan tested, not one, (d) 5-FU was administered (i.v.) in 48 mg/kg/dose, not 75 mg/kg/dose, as in the first study, and (e) galactomannan (i.v. injection) was compared with leucovorin (oral gavage, administered two hours after 5-FU) in terms of efficacy and toxicity. […] 5-FU alone was administered i.v. on the same q4d×4 treatment schedule at dosages of 48 mg/kg/dose. 5-FU was formulated in saline fresh on each day of treatment at a concentration of 4.8 mg/mL, at pH 9.2. […] Leucovorin powder (clinical formulation, Leucovorin calcium for injection) was reconstituted with water for injection to yield a concentration of 10 mg/mL. On each day of treatment the stock solution was diluted with water for injection to yield a concentration of 2.5 mg/mL.
Two more combination-treatment groups were also included in the study. One group of mice was treated with 5-FU (48 mg/kg/dose, i.v., q4d×4), followed by oral gavage (p.o.) with leucovorin, administered two hours after 5-FU at a dosage of 25 mg/kg/dose. Another two groups of mice were treated with 5-FU in a combination with the galactomannan (48 mg/kg/dose and 120 mg/kg/dose, respectively, i.v., q4d×4), followed by p.o. leucovorin treatment, administered at a dosage of 25 mg/kg/dose two hours after 5-FU plus the galactomannan.
There were a total of nine groups of 10 animals each, s.c.-implanted with COLO 205 human colon tumor xenografts.

[3] = i.v. q4d×4, 5-FU 48 mg/kg/dose, GM 120 mg/kg/dose

In the case of “(((1,4)-linked β-D-mannopyranose)17-((1,6)-linked-β-D-galactopyranose)10)12) [GM]”, the adverse effects (beagle dogs) is reported as “no observed adverse effects”, the mutagenic activity ([1]; listed as galactomannan) is reported as “not mutagenic” and the mutagenic activity ([1]; listed as galactomannan of the invention) is reported as “No evidence of mutagenic activity”. For the same substance, the “rats having granulomatous inflammation” value (rats; 48 mg/kg dose of GMP galactomannan clinical solution) was 1/30, the “rats having granulomatous inflammation” value (rats; 96 mg/kg dose of GMP galactomannan clinical solution) was “None of the 30” and the “clinical signs of toxicity, death or decreased weight gain” value (mice) was “no clinical signs of toxicity, death or decreased weight gain”. For the same substance, the “tumor growth delay / tumor regression after 13 days” value ([2]; GM 120 mg/kg/dose alone, q4d×4) was “did not delay growth; also recorded: No tumor regression”, the “median to quadrupling of tumor volume” value [2, 3] was 6.9 days and the “median tumor volume after 13 days” value [2, 3] was 1152 mm3.
